Source: PubChem BioAssay AID256 (DTP/NCI, 2004)
Where “and” joins values, the source holds several entries; their conditions need not be identical. Equal values may be shown once. Inconclusive results and toxic doses are left out.

System: CD2F1 mice, L1210 leukemia ip, survival T/C
Assay: NCI In Vivo Anticancer Drug Screen. Data for tumor model L1210 Leukemia (intraperitoneal) in CD2F1 (CDF1) mice
Conditions: endpoint: mean survival time, higher = longer survival
In short: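 Ratio T/C, where T is the treated-group value and C the vehicle-dosed control value, from mice implanted with a transplantable tumor.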

[1] = dose: 100.0 mg/kg/injection, schedule: Q01DX009 (ip), vehicle: saline with Tween-80
[2] = dose: 200.0 mg/kg/injection, schedule: Q01DX009 (ip), vehicle: saline with Tween-80
[3] = dose: 400.0 mg/kg/injection, schedule: Q01DX009 (ip), vehicle: saline with Tween-80
[4] = dose: 50.0 mg/kg/injection, schedule: Q04DX002 (ip), vehicle: saline with Tween-80
[5] = dose: 100.0 mg/kg/injection, schedule: Q04DX002 (ip), vehicle: saline with Tween-80
[6] = dose: 200.0 mg/kg/injection, schedule: Q04DX002 (ip), vehicle: saline with Tween-80
[7] = dose: 400.0 mg/kg/injection, schedule: Q04DX002 (ip), vehicle: saline with Tween-80
[8] = dose: 100.0 mg/kg/injection, schedule: Q04DX003 (ip), vehicle: saline with Tween-80
[9] = dose: 200.0 mg/kg/injection, schedule: Q04DX003 (ip), vehicle: saline with Tween-80
[10] = dose: 400.0 mg/kg/injection, schedule: Q04DX003 (ip), vehicle: saline with Tween-80

Cc1ccc(S(=O)(=O)N/N=C/C(Br)=C(/Br)C(=O)O)cc1
T/C (dose: 3.12 mg/kg/injection, schedule: Q01DX009 (ip), vehicle: Klucel (hydroxypropylcellulose) (HPC)): 104 % of control
T/C (dose: 6.25 mg/kg/injection, schedule: Q01DX009 (ip), vehicle: Klucel (hydroxypropylcellulose) (HPC)): 112 % of control
T/C (dose: 12.5 mg/kg/injection, schedule: Q01DX009 (ip), vehicle: Klucel (hydroxypropylcellulose) (HPC)): 113 % of control
T/C (dose: 25.0 mg/kg/injection, schedule: Q01DX009 (ip), vehicle: Klucel (hydroxypropylcellulose) (HPC)): 115 % of control and 105 % of control
T/C (dose: 50.0 mg/kg/injection, schedule: Q01DX009 (ip), vehicle: Klucel (hydroxypropylcellulose) (HPC)): 113 % of control and 102 % of control
T/C (dose: 100.0 mg/kg/injection, schedule: Q01DX009 (ip), vehicle: Klucel (hydroxypropylcellulose) (HPC)): 120 % of control and 108 % of control
T/C (dose: 200.0 mg/kg/injection, schedule: Q01DX009 (ip), vehicle: Klucel (hydroxypropylcellulose) (HPC)): 104 % of control

S=C(S)Nc1ccc(Cc2ccc(NC(=S)S)cc2)cc1
T/C [1]: 98 % of control
T/C [2]: 96 % of control
T/C [3]: 93 % of control

O=C1C=CC(=NCl)C=C1
T/C (dose: 2.5 mg/kg/injection, schedule: Q04DX003 (ip), vehicle: saline with Tween-80): 100 % of control
T/C (dose: 5.0 mg/kg/injection, schedule: Q04DX003 (ip), vehicle: saline with Tween-80): 110 % of control

O=C1CCC([N+](=O)[O-])C(c2cccc3ccccc23)N1 (stereo not drawn)
T/C (dose: 100.0 mg/kg/injection, schedule: Q01DX001 (ip), vehicle: saline with Tween-80): 94 % of control
T/C (dose: 200.0 mg/kg/injection, schedule: Q01DX001 (ip), vehicle: saline with Tween-80): 94 % of control
T/C (dose: 400.0 mg/kg/injection, schedule: Q01DX001 (ip), vehicle: saline with Tween-80): 97 % of control

COc1nc(Cl)nc(Cl)c1Cl (tested in a mixture with another compound)
T/C (dose: 12.5 mg/kg/injection, schedule: Q01DX009 (ip), vehicle: other): 93 % of control
T/C (dose: 25.0 mg/kg/injection, schedule: Q01DX009 (ip), vehicle: other): 93 % of control
T/C (dose: 50.0 mg/kg/injection, schedule: Q01DX009 (ip), vehicle: other): 104 % of control

O=C(O)CCc1ccccc1-c1ccccc1
T/C [4]: 105 % of control
T/C [5]: 96 % of control and 97 % of control
T/C [6]: 103 % of control and 105 % of control
T/C [7]: 100 % of control

O=[N+]([O-])/C=C\c1ccc2c(c1)OCO2
T/C [8]: 101 % of control
T/C [9]: 93 % of control
T/C [10]: 90 % of control

O=S(=O)(O)CCCl
T/C (dose: 50.0 mg/kg/injection, schedule: Q01DX009 (ip), vehicle: saline with Tween-80): 96 % of control
T/C [1]: 96 % of control
T/C [2]: 96 % of control

COc1ccc(C(N)=O)cc1N=NN(C)C
T/C (dose: 37.5 mg/kg/injection, schedule: Q01DX009 (ip), vehicle: Klucel (hydroxypropylcellulose) (HPC)): 158 % of control
T/C (dose: 75.0 mg/kg/injection, schedule: Q01DX009 (ip), vehicle: Klucel (hydroxypropylcellulose) (HPC)): 109 % of control

N#C/C(=C(/C#N)c1ccccc1)c1ccccc1
T/C [8]: 96 % of control
T/C [9]: 94 % of control
T/C [10]: 88 % of control

CC(=O)C(CNCC(=O)O)(CNCC(=O)O)C(C)=O
T/C (dose: 25.0 mg/kg/injection, schedule: Q04DX002 (ip), vehicle: saline with Tween-80): 90 % of control
T/C [4]: 94 % of control
T/C [5]: 94 % of control

CCCCCCCCCCCCOc1c(Cl)cc(Cl)cc1Cl
T/C [5]: 101 % of control
T/C [6]: 101 % of control
T/C [7]: 104 % of control

COc1ccc(C2C3C=CC(C3)C2C(=O)O)cc1 (stereo not drawn)
T/C [1]: 96 % of control
T/C [8]: 106 % of control
T/C [2]: 96 % of control
T/C [9]: 103 % of control
T/C [3]: 103 % of control
T/C [10]: 95 % of control

O=[N+]([O-])c1cc(S(=O)(=O)c2ccc(/C=C/c3ccc4c(c3)OCO4)c([N+](=O)[O-])c2)ccc1/C=C/c1ccc2c(c1)OCO2
T/C [1]: 95 % of control
T/C [2]: 88 % of control
T/C [3]: 93 % of control
